Literature values as cited in paper PMC6394493 (Cancer Chemotherapy and Pharmacology, 2018).

Tested on: pS6
Set-up: method as in PMID 25673697
Conditions: patients with advanced solid tumors; cited from earlier work

CO[C@H]1C[C@@H]2CC[C@@H](C)[C@@](O)(O2)C(=O)C(=O)N2CCCC[C@H]2C(=O)O[C@H]([C@H](C)C[C@@H]2CC[C@@H](OCCO)[C@H](OC)C2)CC(=O)[C@H](C)/C=C(\C)[C@@H](O)[C@@H](OC)C(=O)[C@H](C)C[C@H](C)/C=C/C=C/C=C/1C [everolimus]
changes in pS6 in skin biopsies: induce changes in pS6
